Publication PMC6848382, “Characterization of the Bioactivity and Mechanism of Bactenecin Derivatives Against Food-Pathogens” (Frontiers in Microbiology, 2019)
Converted amounts (≈) assume the structure as drawn. Where two headings read alike, the source gives them in different places. Residues, ends and D or L forms follow the SMILES beside them. No end group written: not given here.

Key:
[1] = system: Bacillus cereus CMCC6303; assay type: cell-based; settings: CMCC6303, 24 h
Description: (§1) The antimicrobial activity of each peptide against food-pathogens was characterized by the minimum inhibitory concentration (MIC) ([Ma et al., 2013]). A logarithmic growth-phase culture of bacteria (1 × 10^6 CFU/mL) was mixed with peptide solutions (final concentration ranging from 0 μM to 256 μM) in 96-well plates. After the 96-well plates were incubated for 24 h at 37°C, optical dispersion (OD) was measured using a microplate reader (Bio-Rad, ıHercules, CA, United States) at 630 nm. […] The broth with bacteria cells was used as the negative control, and un-inoculated broth was used as a positive control. The tests were performed in triplicate using three replicates for each experiment.

[2] = system: Salmonella pullorum C79-13; assay type: cell-based; settings: 24 h
Description: as §1

[3] = system: Salmonella typhimurium C77-31; assay type: cell-based
Description: as §1

[4] = system: Staphylococcus aureus ATCC25923; assay type: cell-based
Description: as §1

[5] = system: Escherichia coli ATCC25922; assay type: cell-based; settings: for MIC, CaCl2 / MIC, Control / MIC, KCl / MIC, MgCl2 / MIC, NH4Cl / MIC, NaCl: ATCC25922, 24 h
Description: To evaluate the effect of different physiological conditions on the stability of peptides, we determined the salt stability, thermal stability, and enzymatic stability as described in a previous study ([Dong, 2013]; [Sun et al., 2018]). Escherichia coli ATCC25922 grown in the logarithmic phase (1 × 10^6 CFU/mL) was exposed to each peptide at different salt concentrations (150 mM NaCl, 4.5 mM KCl, 6 μM NH4Cl, 1 mM MgCl2, 8 μM ZnCl2, 2 mM CaCl2, and 4 μM FeCl3). The peptides were treated for 1 h at 100°C to test for thermal stability. The peptides were treated with trypsin, pepsin, papain and protease k at a concentration of 1 mg/mL for 1 h at 37°C to test for enzyme stability. The control group consisted of untreated peptides. The subsequent assay was consistent with the MIC assay.

[6] = system: Staphylococcus aureus CMCC26074; assay type: cell-based
Description: as §1

[7] = system: Cronobacter sakazakii ATCC29544; assay type: cell-based
Description: as §1

[8] = system: Escherichia coli ATCC25922; assay type: cell-based; settings: ATCC25922, 24 h
Description: as §1

[9] = system: Listeria monocytogenes CMCC54004; assay type: cell-based; settings: CMCC54004, 24 h
Description: as §1

[10] = system: 12 typical food-pathogens; settings: over the 12 food-pathogens of Table 3
Description: as §1
The selectivity index (SI), calculated as the ratio of MHC to GM, was used a comparison parameter for the safety and efficacy of peptides.

[11] = system: EA. hy 926 cells; test: Cytotoxicity (CCK-8); assay type: cell-based, human; settings: CCK-8, 24 h; peptide concentration 128 μM
Description: The cytotoxicity of the peptides was tested on the EA. hy 926 cell line by using the Cell Counting Kit-8 (CCK-8, Dojindo, Japan) as described in a previous study ([Sánchez-Gómez et al., 2015]). The EA. Hy 926 cells cultured in the logarithmic growth -phase was then diluted with PBS to a single cell suspension. A 100 μL cell suspension (2 × 10^5 cells) was added to 96-well plates and cultured in an incubator with a 5% CO2 atmosphere at 37°C. The cell culture medium was removed, and the two-fold serial dilutions of peptides prepared using DMEM with 5% FBS were added to the 96-well plates. After 24 h, 100 μL DMEM with 10% CCK-8 was added to the 96-well plates and then cultured for 4 h. The absorbance was measured at 492 nm by using a microplate reader. DMEM served as a positive control and cells mixed with DMEM without peptides as a negative control. Melittin was employed as a control peptide.

[12] = system: Escherichia coli UB1005; assay type: cell-based
Description: as §1

[13] = system: Salmonella typhimurium ATCC14028; assay type: cell-based; settings: ATCC14028, 24 h
Description: as §1

[14] = system: Salmonella enteric-subspenterica CMCC50071; settings: 1 × 10^6 CFU/mL, 24 h, 37°C, triplicate
Description: as §1

[15] = system: Salmonella enteric-subspenterica CMCC47020; settings: 1 × 10^6 CFU/mL, 24 h, 37°C, triplicate
Description: as §1

Compound | MIC [1] [µM] | MIC [2] [µM] | MIC ([3]; murium C77-31, 24 h) [µM] | MIC ([4]; ATCC25923, 24 h) [µM] | MIC, Heat ([5]; ATCC25922, 1 h) [µM] | MIC, Papain ([5]; ATCC25922, 1 h) [µM] | MIC, Pepsin ([5]; ATCC25922, 1 h) [µM] | MIC, Proteinase k ([5]; ATCC25922, 1 h) [µM] | MIC, Trypsin ([5]; ATCC25922, 1 h) [µM] | MIC, CaCl2 [5] [µM] | MIC, Control [5] [µM] | MIC, KCl [5] [µM] | MIC, MgCl2 [5] [µM] | MIC, NH4Cl [5] [µM] | MIC, NaCl [5] [µM] | MIC ([6]; CMCC26074, 24 h) [µM] | MIC ([7]; ATCC29544, 24 h) [µM] | MIC [8] [µM] | MIC [9] [µM] | GM (geometric mean of MICs) [10] [µM] | also measured
CC[C@H](C)[C@@H]1NC(=O)[C@H](CCCNC(=N)N)NC(=O)[C@@H](NC(=O)[C@H](CC(C)C)NC(=O)[C@@H](N)CCCNC(=N)N)CSSC[C@@H](C(=O)N[C@@H](CCCNC(=N)N)C(N)=O)NC(=O)[C@H](C(C)C)NC(=O)[C@H](CCCNC(=N)N)NC(=O)[C@H]([C@@H](C)CC)NC(=O)[C@H](C(C)C)NC(=O)[C@H](C(C)C)NC1=O [L2C3V10C11, bactenecin] (HELM PEPTIDE1{R.L.C.R.I.V.V.I.R.V.C.R.[am]}$PEPTIDE1,PEPTIDE1,3:R3-11:R3$$$V2.0) | 64 (≈ 94.9 µg/mL) | >256 | >256 | >256 | 8 (≈ 11.9 µg/mL) | 16 (≈ 23.7 µg/mL) | 16 (≈ 23.7 µg/mL) | 32 (≈ 47.5 µg/mL) | 64 (≈ 94.9 µg/mL) | 8 (≈ 11.9 µg/mL) | 4 (≈ 5.93 µg/mL) | 4 (≈ 5.93 µg/mL) | 4 (≈ 5.93 µg/mL) | 4 (≈ 5.93 µg/mL) | 16 (≈ 23.7 µg/mL) | >256 | 256 (≈ 380 µg/mL) | 4 (≈ 5.93 µg/mL) |  |  | 
RKRRIVVIRRKR-NH2 [K2R3R10K11] | 128 |  |  |  | 16 | 8 | 32 | 8 |  | 16 | 8 | 8 | 8 | 8 | 32 |  |  | 8 | 32 | 191.8 | MIC ([2]; Salmonella pullorum C79-13, 1 × 10^6 CFU/mL, 37°C, triplicate): 256 µM; EA. hy 926 cell viability [11]: 85%; MIC ([3]; Salmonella typhimurium C77-31, 1 × 10^6 CFU/mL, 24 h, 37°C, triplicate): >256 µM; MIC ([4]; Staphylococcus aureus ATCC25923, 1 × 10^6 CFU/mL, 24 h, 37°C, triplicate): >256 µM; MIC ([12]; Escherichia coli UB1005, 1 × 10^6 CFU/mL, 24 h, 37°C, triplicate): 256 µM; MIC, Trypsin ([5]; E. coli ATCC25922, peptides treated with trypsin 1 mg/mL, 1 h, 37°C): >256 µM; MIC [13]: 128 µM; MIC ([6]; Staphylococcus aureus CMCC26074, 1 × 10^6 CFU/mL, 24 h, 37°C, triplicate): >256 µM; MIC ([7]; Cronobacter sakazakii ATCC29544, 1 × 10^6 CFU/mL, 24 h, 37°C, triplicate): >256 µM
RKWRIVVIRVRR-NH2 [K2W3V10R11] | 16 | 8 | 32 | 128 | 8 | 2 | 128 | 256 | >256 | 8 | 2 | 2 | 4 | 2 | 8 | 256 | 32 | 2 | 2 | 19.0 | MIC [14]: 8 µM; EA. hy 926 cell viability [11]: 80%; MIC ([12]; UB1005, 24 h): 8 µM; MIC [13]: 32 µM; MIC [15]: 64 µM
RRFRIVVIRWLR-NH2 [R2F3W10L11] | 32 | 32 | 64 | 256 | 32 | 8 | 16 | 128 | >256 | 8 | 2 | 8 | 2 | 4 | 16 | 256 | 32 | 2 | 16 | 32.0 | MIC [14]: 8 µM; EA. hy 926 cell viability [11]: 71%; MIC ([12]; UB1005, 24 h): 16 µM; MIC [13]: 32 µM; MIC [15]: 64 µM
